According to ChEMBL document CHEMBL5370660, “Design of a Supersoft Topical JAK Inhibitor, Which Is Effective in Human Skin but Rapidly Deactivated in Blood” (J Med Chem, 2023):
Converted amounts (≈) assume the structure as drawn.

How the values were obtained:
JAK3/JAK1 [1] = biological target: T1, JAK3/JAK1 (Homo sapiens, UniProt P23458+P52333); assay: Inhibition of JAK1/3-mediated STAT5 phosphorylation in human whole blood incubated for 30 mins followed by IL-2 addition measured after 15 mins by flow cytometry; assay type: tissue-based
T1 sequence (P23458 whole entry, one chain of several): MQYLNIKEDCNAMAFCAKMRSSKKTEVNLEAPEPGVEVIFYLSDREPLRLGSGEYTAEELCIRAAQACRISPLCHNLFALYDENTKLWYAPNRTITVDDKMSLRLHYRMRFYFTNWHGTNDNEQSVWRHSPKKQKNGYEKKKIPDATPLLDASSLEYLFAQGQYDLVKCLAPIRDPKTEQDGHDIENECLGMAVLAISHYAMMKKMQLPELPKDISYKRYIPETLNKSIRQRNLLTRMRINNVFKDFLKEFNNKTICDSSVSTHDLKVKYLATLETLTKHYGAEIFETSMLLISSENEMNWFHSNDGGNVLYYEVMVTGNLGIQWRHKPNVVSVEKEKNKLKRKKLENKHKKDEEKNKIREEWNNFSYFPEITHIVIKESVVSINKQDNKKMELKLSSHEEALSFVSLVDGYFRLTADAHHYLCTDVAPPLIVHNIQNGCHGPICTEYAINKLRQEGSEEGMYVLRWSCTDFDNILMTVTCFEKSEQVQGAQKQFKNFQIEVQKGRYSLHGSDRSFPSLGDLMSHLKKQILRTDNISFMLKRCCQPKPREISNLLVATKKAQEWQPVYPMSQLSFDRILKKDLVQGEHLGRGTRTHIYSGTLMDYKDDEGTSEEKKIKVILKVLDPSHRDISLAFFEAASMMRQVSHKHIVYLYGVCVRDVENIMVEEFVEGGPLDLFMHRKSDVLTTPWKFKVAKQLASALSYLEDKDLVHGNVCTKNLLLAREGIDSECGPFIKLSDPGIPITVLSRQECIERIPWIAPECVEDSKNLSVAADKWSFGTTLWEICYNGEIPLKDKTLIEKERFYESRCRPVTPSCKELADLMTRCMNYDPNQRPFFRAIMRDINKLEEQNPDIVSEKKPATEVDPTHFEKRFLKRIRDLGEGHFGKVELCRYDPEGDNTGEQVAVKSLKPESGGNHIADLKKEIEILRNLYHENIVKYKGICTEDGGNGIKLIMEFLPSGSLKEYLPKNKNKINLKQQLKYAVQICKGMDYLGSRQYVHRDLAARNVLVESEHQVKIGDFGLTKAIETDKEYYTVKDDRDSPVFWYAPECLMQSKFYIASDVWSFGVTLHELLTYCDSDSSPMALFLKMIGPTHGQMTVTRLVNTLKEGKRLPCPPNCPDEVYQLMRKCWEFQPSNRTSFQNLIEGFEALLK

JAK2/JAK1 = JAK2/JAK1 (Homo sapiens, UniProt O60674+P23458); assay: Inhibition of JAK1/2-mediated STAT1 phosphorylation in human M07E cells preincubated for 30 mins followed by IFN-alpha stimulation measured after 15 mins by flow cytometry; assay type: cell-based
JAK2/JAK1, sequence (P23458 whole entry): as the sequence (P23458 whole entry, one chain of several) above
JAK2/JAK1, sequence (O60674 whole entry): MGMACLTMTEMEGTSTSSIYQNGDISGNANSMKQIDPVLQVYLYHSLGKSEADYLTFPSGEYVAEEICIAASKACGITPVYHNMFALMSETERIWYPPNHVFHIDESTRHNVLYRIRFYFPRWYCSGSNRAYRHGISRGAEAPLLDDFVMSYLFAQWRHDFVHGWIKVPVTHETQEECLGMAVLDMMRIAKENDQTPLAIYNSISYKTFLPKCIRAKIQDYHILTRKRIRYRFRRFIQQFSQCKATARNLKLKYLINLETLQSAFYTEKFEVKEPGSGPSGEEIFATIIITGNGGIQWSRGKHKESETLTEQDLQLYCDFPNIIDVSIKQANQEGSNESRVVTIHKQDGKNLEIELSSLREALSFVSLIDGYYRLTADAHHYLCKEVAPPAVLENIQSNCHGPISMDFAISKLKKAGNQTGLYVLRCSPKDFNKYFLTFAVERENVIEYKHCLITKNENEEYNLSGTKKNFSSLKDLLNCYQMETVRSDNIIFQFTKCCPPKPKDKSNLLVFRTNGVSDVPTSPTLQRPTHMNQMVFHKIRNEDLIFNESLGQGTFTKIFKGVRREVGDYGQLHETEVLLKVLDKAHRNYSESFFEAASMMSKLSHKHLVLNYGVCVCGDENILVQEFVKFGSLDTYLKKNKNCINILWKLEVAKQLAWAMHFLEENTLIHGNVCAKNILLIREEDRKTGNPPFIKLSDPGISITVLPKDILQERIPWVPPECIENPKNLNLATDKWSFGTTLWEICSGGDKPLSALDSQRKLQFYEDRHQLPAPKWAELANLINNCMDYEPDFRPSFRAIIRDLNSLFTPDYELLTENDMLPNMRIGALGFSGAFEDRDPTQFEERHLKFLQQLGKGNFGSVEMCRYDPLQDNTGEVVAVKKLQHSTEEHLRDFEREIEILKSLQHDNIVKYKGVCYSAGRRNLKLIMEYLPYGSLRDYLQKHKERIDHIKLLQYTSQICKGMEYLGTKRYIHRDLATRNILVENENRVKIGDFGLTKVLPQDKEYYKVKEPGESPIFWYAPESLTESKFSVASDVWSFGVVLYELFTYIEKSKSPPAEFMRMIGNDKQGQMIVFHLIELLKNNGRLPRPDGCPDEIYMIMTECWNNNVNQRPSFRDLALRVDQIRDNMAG

JAK3/JAK1 [2] = biological target: T1, JAK3/JAK1; assay: Inhibition of JAK1/3-mediated STAT5 phosphorylation in human M07E cells preincubated for 30 mins followed by IL-15 stimulation measured after 15 mins by flow cytometry; assay type: cell-based
[3] = biological target: Tyrosine-protein kinase JAK2 (Homo sapiens, UniProt O60674); assay: Inhibition of GST-fused JAK2 (808 to 1132 residues)(unknown origin) using Carboxyfluorescein-Ahx-GGEEEEYFELVKKKK peptide as substrate incubated for 30 mins in presence of ATP by caliper microfluidic mobility shift assay
Tyrosine-protein kinase JAK2, sequence (O60674 whole entry, the tested form may be a part): as the sequence (O60674 whole entry) above

[4] = biological target: Non-receptor tyrosine-protein kinase TYK2 (Homo sapiens, UniProt P29597); assay: Inhibition of GST-fused TYK2 (888 to 1187 residues)(unknown origin) using FITC-Ahr-KKSRGDYMTMQIG-NH2 peptide as substrate incubated for 30 mins in presence of ATP by caliper microfluidic mobility shift assay
Non-receptor tyrosine-protein kinase TYK2, sequence (P29597 whole entry, the tested form may be a part): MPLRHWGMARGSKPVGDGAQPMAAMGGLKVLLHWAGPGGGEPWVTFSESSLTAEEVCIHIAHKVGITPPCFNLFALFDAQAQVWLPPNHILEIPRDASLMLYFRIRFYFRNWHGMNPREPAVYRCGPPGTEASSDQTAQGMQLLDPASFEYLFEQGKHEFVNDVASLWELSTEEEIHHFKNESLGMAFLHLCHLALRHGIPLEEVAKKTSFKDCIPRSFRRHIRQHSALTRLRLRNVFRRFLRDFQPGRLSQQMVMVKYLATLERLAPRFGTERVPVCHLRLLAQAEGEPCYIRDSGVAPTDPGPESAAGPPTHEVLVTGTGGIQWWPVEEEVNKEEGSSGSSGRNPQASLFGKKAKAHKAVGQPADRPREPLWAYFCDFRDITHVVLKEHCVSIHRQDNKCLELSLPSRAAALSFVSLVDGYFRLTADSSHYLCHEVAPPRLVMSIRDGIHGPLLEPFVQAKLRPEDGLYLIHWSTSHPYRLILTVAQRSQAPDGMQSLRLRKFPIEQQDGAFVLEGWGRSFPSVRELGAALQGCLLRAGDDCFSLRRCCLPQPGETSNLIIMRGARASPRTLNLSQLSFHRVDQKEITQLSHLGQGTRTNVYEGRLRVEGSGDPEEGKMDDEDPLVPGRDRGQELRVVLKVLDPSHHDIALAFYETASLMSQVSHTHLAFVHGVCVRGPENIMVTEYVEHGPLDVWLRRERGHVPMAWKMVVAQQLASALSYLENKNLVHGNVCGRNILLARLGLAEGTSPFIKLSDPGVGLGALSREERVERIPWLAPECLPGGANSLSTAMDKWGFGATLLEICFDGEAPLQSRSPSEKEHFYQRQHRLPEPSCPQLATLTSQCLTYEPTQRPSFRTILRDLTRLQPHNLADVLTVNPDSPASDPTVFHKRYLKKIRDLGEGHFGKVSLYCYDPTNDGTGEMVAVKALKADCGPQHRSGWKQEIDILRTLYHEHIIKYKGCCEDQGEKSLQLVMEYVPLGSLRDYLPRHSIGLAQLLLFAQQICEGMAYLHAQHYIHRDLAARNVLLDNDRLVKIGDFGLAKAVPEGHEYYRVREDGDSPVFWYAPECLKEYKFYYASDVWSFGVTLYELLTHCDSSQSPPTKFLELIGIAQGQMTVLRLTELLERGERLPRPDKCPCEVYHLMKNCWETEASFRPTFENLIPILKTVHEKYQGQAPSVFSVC

[5] = Lipophilicity, LogD of compound; assay type: physicochemical; conditions: octanol/water
[6] = Metabolic stability in human skin S9 fraction measured upto 120 mins by LC-MS analysis; assay type: ADME, subcellular
[7] = biological target: T2, Tyrosine-protein kinase JAK3 (Homo sapiens, UniProt P52333); assay: Inhibition of GST-fused JAK3 (811 to 1124 residues)(unknown origin) using Carboxyfluorescein-Ahx-GGEEEEYFELVKKKK peptide as substrate incubated for 30 mins in presence of ATP by caliper microfluidic mobility shift assay
T2 sequence (P52333 whole entry): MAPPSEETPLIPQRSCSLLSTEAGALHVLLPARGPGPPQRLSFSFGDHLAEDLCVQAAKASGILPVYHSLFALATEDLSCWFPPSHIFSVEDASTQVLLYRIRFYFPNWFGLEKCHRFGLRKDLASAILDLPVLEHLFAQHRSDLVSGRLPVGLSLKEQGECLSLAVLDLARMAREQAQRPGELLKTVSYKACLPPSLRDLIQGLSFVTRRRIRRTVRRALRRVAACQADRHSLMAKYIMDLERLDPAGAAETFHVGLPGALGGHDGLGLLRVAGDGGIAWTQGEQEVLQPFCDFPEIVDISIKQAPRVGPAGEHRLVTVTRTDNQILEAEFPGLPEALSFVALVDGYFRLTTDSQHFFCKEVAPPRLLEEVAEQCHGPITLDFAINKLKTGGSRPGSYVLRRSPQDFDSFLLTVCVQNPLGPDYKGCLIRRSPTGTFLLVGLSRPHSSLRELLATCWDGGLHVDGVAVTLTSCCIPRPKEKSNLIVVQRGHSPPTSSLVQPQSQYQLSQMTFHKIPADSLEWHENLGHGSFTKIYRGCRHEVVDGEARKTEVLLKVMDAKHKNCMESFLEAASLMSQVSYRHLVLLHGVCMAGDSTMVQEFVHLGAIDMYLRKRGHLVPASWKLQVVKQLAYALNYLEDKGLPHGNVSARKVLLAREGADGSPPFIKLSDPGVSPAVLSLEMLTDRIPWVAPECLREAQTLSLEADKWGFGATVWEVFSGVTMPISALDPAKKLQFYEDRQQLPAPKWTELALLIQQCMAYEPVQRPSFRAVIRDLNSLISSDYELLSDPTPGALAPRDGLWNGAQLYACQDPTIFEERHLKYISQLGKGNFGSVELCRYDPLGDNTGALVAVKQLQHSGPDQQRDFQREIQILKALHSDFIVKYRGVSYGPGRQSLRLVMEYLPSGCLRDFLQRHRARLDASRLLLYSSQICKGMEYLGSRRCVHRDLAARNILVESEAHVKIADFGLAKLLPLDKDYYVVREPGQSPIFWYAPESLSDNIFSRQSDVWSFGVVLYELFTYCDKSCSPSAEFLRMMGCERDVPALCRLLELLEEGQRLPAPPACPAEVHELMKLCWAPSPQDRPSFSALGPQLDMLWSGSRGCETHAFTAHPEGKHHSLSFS

[8] = biological target: Tyrosine-protein kinase JAK1 (Homo sapiens, UniProt P23458); assay: Inhibition of GST-fused JAK1 (866 to 1154 residues)(unknown origin) using FITC-Ahr-KKSRGDYMTMQIG-NH2 peptide as substrate incubated for 30 mins in presence of ATP by caliper microfluidic mobility shift assay
Tyrosine-protein kinase JAK1, sequence (P23458 whole entry, the tested form may be a part): as the sequence (P23458 whole entry, one chain of several) above

[9] = Stability in human whole blood assessed as half life at 1 uM incubated upto 8 hrs by LC-MS/MS analysis; assay type: ADME, tissue-based
[10] = Stability of compound under temperature stress assessed as compound degradation at 50 degreeC measured after 7 days using crystalline form of sample; assay type: physicochemical; conditions: time 7 day; read-out: Drug degradation
[11] = Saturation solubility of compound in PEG400/transcutol/benzyl alcohol/water mixture using crystalline form of sample; assay type: physicochemical
[12] = Stability of compound in fresh human skin explant using Franz diffusion cell model assessed as compound concentration in dermis at 3 % administered topically preincubated overnight followed by fresh media replacement in receiver fluid without compound and subsequently stimulated with IL-4/IL-13 measured after 40 hrs by LC-MS/MS analysis; assay type: ADME, tissue-based, Skin of body; conditions: topical or ocular, read-out: Ct
[13] = Stability of compound under light stress assessed as compound decomposition under sunlight with intensity of 4000 KJ/m2, irradiation of 250 W/m2, wavelength of >290 nm, temperature of 37 degreeC for 4 hrs using crystalline form of sample; assay type: ADME; conditions: read-out: Drug degradation
[14] = Drug penetration in fresh human skin explant using Franz diffusion cell model assessed as concentration of 2-(6-((5-carbamoyl-4-((2-methoxyphenyl)amino)pyridin-2-yl)amino)pyridin-3-yl)acetic acid metabolite in receiver fluid at 3 % administered topically preincubated overnight followed by fresh media replacement in receiver fluid without compound and subsequently stimulated with IL-4/IL-13 measured after 24 hrs by LC-MS/MS analysis; assay type: ADME, tissue-based, Skin of body; conditions: topical_or_ocular
[15] = Permeability of compound; assay type: ADME; conditions: not told; read-out: permeability
[16] = Thermodynamic solubility of the compound at pH 6.8 using crystalline form of sample; assay type: physicochemical; conditions: read-out: Therm_solubility
[17] = Stability of compound under temperature stress assessed as compound degradation at 50 degreeC measured after 7 days using amorphous form of sample; assay type: physicochemical; conditions: time 7 day; read-out: Drug degradation
[18] = Saturation solubility of compound in PEG400/transcutol/benzyl alcohol/water mixture using amorphous form of sample; assay type: physicochemical
[19] = Solubility of the compound at pH 6.8 using amorphous form of sample; assay type: physicochemical; conditions: buffer

SMILES | IC50 (JAK3/JAK1 [1]) [nM] | IC50 (JAK2/JAK1) [nM] | IC50 (JAK3/JAK1 [2]) [nM] | IC50 [3] [nM] | IC50 [4] [nM] | logD [5] | half-life [6] [min] | IC50 [7] [nM] | IC50 [8] [nM] | half-life at 1 µM [9] [min] | degraded at 168 h [10] [%] | solubility thermodynamic [11] [µg/mL] | concentration at 40 h, 3 % [12] [µM] | degraded at 4 h [13] [%] | Drug uptake [14] [µM] | Papp [15] [×10⁻⁶ cm/s] | solubility thermodynamic [16] [µg/mL] | degraded at 168 h [17] [%] | solubility thermodynamic [18] [µg/mL] | solubility [19] [µg/mL]
COCCOC(=O)Cc1ccc(Nc2cc(Nc3ccccc3OC)c(C(N)=O)cn2)nc1 | > 30000 | 14 | 63 | 6 | 2 | 2.9 | 5 | 4 | 6 | – | – | – | – | – | – | – | – | – | – | –
CCOC(=O)c1ccc(Nc2cc(Nc3ccccc3Cl)c(C(N)=O)cn2)nc1 | 10300 | 288 | 189 | 110 | – | – | – | 170 | 120 | – | – | – | – | – | – | – | – | – | – | –
COc1ccccc1Nc1cc(Nc2ccc(CC(=O)O[C@@H]3CCOC3)cn2)ncc1C(N)=O | > 50000 | 48 | 67 | 4 | 2 | – | 8 | 3 | 3 | – | – | – | – | – | – | – | – | – | – | –
NC(=O)c1cnc(Nc2cccc(O)n2)cc1Nc1ccccc1Cl | – | > 10000 | – | – | – | – | > 200 | – | – | > 60 | – | – | – | – | – | – | – | – | – | –
COC[C@H](C)OC(=O)Cc1ccc(Nc2cc(Nc3ccccc3OC)c(C(N)=O)cn2)nc1 | > 50000 | 58 | 115 | 2 | – | – | 12 | 1 | 1 | – | – | – | – | – | – | – | – | – | – | –
CCOC(=O)COc1ccc(Nc2cc(Nc3ccccc3Cl)c(C(N)=O)cn2)nc1 | 7530 | 185 | 141 | 76 | 54 | – | 4 | 69 | 69 | – | – | – | – | – | – | – | – | – | – | –
CC(C)OC(=O)Cc1ccc(Nc2cc(Nc3ccccc3Cl)c(C(N)=O)cn2)nc1 | 1200 | 115 | 71 | 27 | – | – | 67 | 28 | 29 | 65 | – | – | – | – | – | – | – | – | – | –
COc1ccccc1Nc1cc(Nc2ccc(CC(=O)O[C@H]3CCOC3)cn2)ncc1C(N)=O | 16000 | 44 | 89 | 5 | 2 | 3 | 39 | 5 | 5 | 5 | 2.4 | > 18000 | 54 | 3.3 | 0.124 | 20 | 31 (≈ 66.9 µM) | – | – | –
NC(=O)c1cnc(Nc2ccc(CC(=O)O)cn2)cc1Nc1ccccc1Cl | > 50000 | 3860 | 2580 | 19 | 10 | 0.4 | < 240 | 10 | 9 | > 240 | – | – | – | – | – | 0.9 | – | – | – | –
CCOC(=O)Cc1ccc(Nc2cc(Nc3ccccc3Cl)c(C(N)=O)cn2)nc1 | 12200 | 60 | 24 | 17 | – | 4.6 | 14 | 18 | 20 | 7 | – | – | – | – | – | 11 | – | 1 | 8700 (≈ 20400 µM) | 0.1 (≈ 0.235 µM)
CCOC(=O)Cc1ccc(Nc2cc(Nc3ccccc3OC)c(C(N)=O)cn2)nc1 | 10200 | 58 | 80 | 26 | 21 | 2.9 | 12 | 56 | 19 | 5 | 2 | ≥ 9000 | – | 0 | – | 28 | 1 (≈ 2.37 µM) | – | – | –
CCOC(=O)CCc1ccc(Nc2cc(Nc3ccccc3Cl)c(C(N)=O)cn2)nc1 | 2500 | 185 | 171 | 25 | 37 | – | 8 | 25 | 27 | – | – | – | – | – | – | – | – | – | – | –
